Results: patent US7015228B2, “4-amino-2-(2-pyridyl)pyrimidines as microbicidal active substances” (Ciba Specialty Chemicals Corporation, priority 2001, dated 2006)
In brackets after ≈: the same amount, converted by molar mass.

Tests used:
Assay type in all cases: cell-based
[1] = system: Escherichia coli NCTC 8196; experiment: Minimum inhibitory concentration (MIC) in microtitre plates; details: for Minimum inhibitory concentration (MIC) E. coli NCTC 8196: Table 8, * = significant inhibition of growth, but not complete inhibition
Protocol: (§1) Determination of the Minimum Inhibitory Concentration (MIC Value) in Microtitre Plates
(§2) Casein-soybean flour-peptone broth for preparation of pre-cultures of test bacteria and yeast.
(§3) Mycological slant agar for the pre-culture of moulds
(§4) Examples of Test Organisms:
(§5) The test substances are pre-dissolved in dimethyl sulfoxide (DMSO) and tested in a dilution series of 1:2.
(§6) Bacteria and yeast are cultured overnight in CASO broth, the mould is cultured overnight on mycological slant agar, and washed off using 10 ml of 0.85% sodium chloride solution (+0.1% Triton X-100).
(§7) All the test organisms are adjusted to an organism count of 1–5×10^6 CFU/ml using 0.85% sodium chloride solution.
(§8) The test substances are pre-pipetted into microtitre plates in amounts of 8 μl per well.
(§9) Pre-diluted organism suspensions are diluted 1:100 in CASO broth (bacteria and yeast) or Sabouraud 2% glucose broth (mould) and are added in amounts of 192 μl per well to the test substances.
(§10) The test batches are incubated for 48 hours at 37° C. (bacteria and yeast) or for 5 days at 28° C. (mould).
(§11) After incubation, the growth is determined on the basis of the turbidity of the test batches (optical density) at 620 nm in a microplate reader.
(§12) The minimum inhibitory concentration (MIC value) is the concentration of substance at which there is found (compared to the growth of the control) an appreciable inhibition of growth (≦20% growth) of the test organisms.
(§13) One microtitre plate is used for each test organism and substance concentration. All the substances are tested in duplicate.

[2] = system: Staphylococcus hominis DMS 20328; experiment: as above; details: Table 7, 48 hours at 37° C., MIC = ≦20% growth compared to control
Protocol: as §1, §2, §3, §4, §5, §6, §7, §8, §9, §10, §11, §12, §13

[3] = system: Enterococcus hirae ATCC 10541; experiment: Minimum inhibitory concentration (MIC), further microorganisms; details: Table 8; * = significant inhibition of growth, but not complete inhibition
Protocol: as §1, §2, §3, §5, §6, §7, §8, §9, §10, §11, §12, §13

[4] = system: Epidermophyton floccosum DSM 10709; experiment: as above; details: Table 8; * = significant inhibition of growth, but not complete inhibition
Protocol: as §1, §2, §3, §5, §6, §7, §8, §9, §10, §11, §12, §13

[5] = system: Micrococcus luteus ATCC 9341; experiment: as above; details: Table 8; * = significant inhibition of growth, but not complete inhibition
Protocol: as §1, §2, §3, §5, §6, §7, §8, §9, §10, §11, §12, §13

[6] = system: S. epidermidis ATCC 12228; experiment: as above; details: Table 8; * = significant inhibition of growth, but not complete inhibition
Protocol: as §1, §2, §3, §5, §6, §7, §8, §9, §10, §11, §12, §13

[7] = system: Staphylococcus aureus ATCC 9144; experiment: as above; details: Table 8; * = significant inhibition of growth, but not complete inhibition
Protocol: as §1, §2, §3, §5, §6, §7, §8, §9, §10, §11, §12, §13

[8] = system: Trichophyton mentagrophytes ATCC 9533; experiment: as above; details: Table 8; * = significant inhibition of growth, but not complete inhibition
Protocol: as §1, §2, §3, §5, §6, §7, §8, §9, §10, §11, §12, §13

[9] = Table 7, 48 hours at 37° C., MIC = ≦20% growth compared to control

Structure (SMILES)	Minimum inhibitory concentration (MIC) E. coli [1, 9] [µg/mL]	Minimum inhibitory concentration (MIC) S. hominis [2] [µg/mL]	other results
CCc1c(C)nc(-c2ccccn2)nc1NCCCCCCCN [compound 4]	>120	>120	–
CCc1c(C)nc(-c2ccccn2)nc1NCCCCCCCCN [compound 5]	>120	>120	–
CCCCCCCCNc1nc(-c2ccccn2)nc(C)c1CC [compound 9]	>120	7.5 (≈ 23 µM)	Minimum inhibitory concentration (MIC) E. coli NCTC 8196 [1]: >60 µg/mL; Minimum inhibitory concentration (MIC) Enterococcus hirae ATCC 10541 [3]: 30 µg/mL (≈ 91.9 µM); Minimum inhibitory concentration (MIC) Epidermophyton floccosum DSM 10709 [4]: *15 μg/mL; Minimum inhibitory concentration (MIC) Micrococcus luteus ATCC 9341 [5]: 3.75 µg/mL (≈ 11.5 µM); Minimum inhibitory concentration (MIC) S. epidermidis ATCC 12228 [6]: *15 μg/mL; Minimum inhibitory concentration (MIC) Staphylococcus aureus ATCC 9144 [7]: 15 µg/mL (≈ 45.9 µM); Minimum inhibitory concentration (MIC) Trichophyton mentagrophytes ATCC 9533 [8]: *30 μg/mL
CCCCCCCCCNc1nc(-c2ccccn2)nc(C)c1CC [compound 10]	>80	5 (≈ 14.7 µM)	Minimum inhibitory concentration (MIC) E. coli NCTC 8196 [1]: >60 µg/mL; Minimum inhibitory concentration (MIC) Enterococcus hirae ATCC 10541 [3]: 30 µg/mL (≈ 88.1 µM); Minimum inhibitory concentration (MIC) Epidermophyton floccosum DSM 10709 [4]: 60 µg/mL (≈ 176 µM); Minimum inhibitory concentration (MIC) Micrococcus luteus ATCC 9341 [5]: <0.5 µg/mL; Minimum inhibitory concentration (MIC) S. epidermidis ATCC 12228 [6]: 15 µg/mL (≈ 44.1 µM); Minimum inhibitory concentration (MIC) Staphylococcus aureus ATCC 9144 [7]: 15 µg/mL (≈ 44.1 µM); Minimum inhibitory concentration (MIC) Trichophyton mentagrophytes ATCC 9533 [8]: 60 µg/mL (≈ 176 µM)
CCCCCCCCCCCCCCCCNc1nc(-c2ccccn2)nc(C)c1CC [compound 13]	>120	120 (≈ 274 µM)	–
Cc1cc(NCCCCCCCN)nc(-c2ccccn2)n1 [compound 16]	>120	>120	–
Cc1cc(NCCCCCCCCN)nc(-c2ccccn2)n1 [compound 17]	>80	>80	–
CCCCCCCNc1cc(C)nc(-c2ccccn2)n1 [compound 20]	120 (≈ 422 µM)	7.5 (≈ 26.4 µM)	–
CCCCCCCCCCCCCCCCNc1cc(C)nc(-c2ccccn2)n1 [compound 25]	>120	15 (≈ 36.5 µM)	–
NCCCCCCCNc1cc(C(F)(F)F)nc(-c2ccccn2)n1 [compound 28]	>80	>80	–
NCCCCCCCCCCCCNc1cc(C(F)(F)F)nc(-c2ccccn2)n1 [compound 31]	20 (≈ 47.2 µM)	5 (≈ 11.8 µM)	–
CCCCCCCCCCCCNc1cc(C(F)(F)F)nc(-c2ccccn2)n1 [compound 36]	–	–	MIC ([1]; Escherichia coli, NCTC8196, Table 7, 48 hours at 37° C., MIC = ≦20% growth compared to control, read-out: Minimum inhibitory concentration (MIC) E. coli): > 120 µg/mL; MIC ([2]; Staphylococcus hominis, DMS20328, read-out: Minimum inhibitory concentration (MIC) S. hominis): 60 µg/mL (≈ 147 µM)
FC(F)(F)c1cc(NC2CCCCC2)nc(-c2ccccn2)n1 [compound 38]	>120	60 (≈ 186 µM)	–
CC(C)c1cc(NCCCCCCCN)nc(-c2ccccn2)n1 [compound 40]	>120	120 (≈ 366 µM)	–
CC(C)c1cc(NCCCCCCCCN)nc(-c2ccccn2)n1 [compound 41]	>120	120 (≈ 351 µM)	–

Now from value to molecule, other results behind:

Minimum inhibitory concentration (MIC) E. coli [1, 9] [µg/mL]	Minimum inhibitory concentration (MIC) S. hominis [2] [µg/mL]	Structure (SMILES)	other results
>80	>80	NCCCCCCCCNc1cc(C(F)(F)F)nc(-c2ccccn2)n1 [compound 29]	–
>120	30 (≈ 87.1 µM)	FC(F)(F)c1cc(NCCc2ccccc2)nc(-c2ccccn2)n1 [compound 39]	–
>120	>120	CCCCCCCCCCCCCCCCNc1cc(C(C)C)nc(-c2ccccn2)n1 [compound 49]	–
>120	15 (≈ 50.6 µM)	CC(C)c1cc(NC2CCCCC2)nc(-c2ccccn2)n1 [compound 50]	–
>120	30 (≈ 94.2 µM)	CC(C)c1cc(NCCc2ccccc2)nc(-c2ccccn2)n1 [compound 51]	–
>80	80 (≈ 225 µM)	CC(C)(C)c1cc(NCCCCCCCCN)nc(-c2ccccn2)n1 [compound 53]	–
